Laboratory results reported in article PMC13395458, “Structural dynamics of IRE1 and its interaction with unfolded peptides” (eLife, 2026).
Like-named read-outs stand apart in the source and are kept apart here. Ends that are not written are not given here.

Assays:
hIRE1α LD Y161R = biological target: T1, hIRE1α LD Y161R (Homo sapiens, UniProt O75460, Y161R); assay: Fluorescence anisotropy, binding of labeled MPZ1N-2X to hIRE1α LD Y161R; details: 95% confidence interval of KD
T1 construct: His6 (N, cleaved yes); made in house; host or cells: Escherichia coli BL21DE3* RIPL
T1 sequence (O75460 24-443 Y161R): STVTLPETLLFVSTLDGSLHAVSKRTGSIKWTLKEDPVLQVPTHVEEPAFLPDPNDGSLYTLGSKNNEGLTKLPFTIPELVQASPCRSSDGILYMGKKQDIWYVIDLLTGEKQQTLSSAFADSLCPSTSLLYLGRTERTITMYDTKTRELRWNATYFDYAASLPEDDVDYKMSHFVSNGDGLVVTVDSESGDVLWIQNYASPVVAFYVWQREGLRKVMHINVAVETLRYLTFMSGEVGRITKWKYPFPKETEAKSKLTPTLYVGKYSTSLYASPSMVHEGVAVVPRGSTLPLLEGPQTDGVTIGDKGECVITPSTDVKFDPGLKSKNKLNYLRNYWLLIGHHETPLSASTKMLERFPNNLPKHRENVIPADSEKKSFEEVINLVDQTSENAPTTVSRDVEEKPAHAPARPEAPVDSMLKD
Method: (§1) To express hIRE1α LD (24–443) human cDNA sequences were cloned into pET47b(+) to create a coding sequence with N-terminal His6-tag. Mutations of hIRE1α LD were introduced by overlap extension PCR and restriction cloning into pET47b(+). For expression of the proteins, the plasmid of interest was transformed into Escherichia coli strain BL21DE3* RIPL (Agilent Technologies). Cells were grown in Luria Broth until OD600 = 0.6–0.8. Protein expression was induced with 0.6 mM IPTG, and cells were grown in 20°C overnight. For purification, cells after harvesting were resuspended in Lysis Buffer (50 mM HEPES pH 7.2, 400 mM NaCl, 20 mM imidazole, 5% glycerol, 5 mM β -mercaptoethanol) and were lysed in Constans Systems cell disruptor at 25,000 psi. […] Protein concentrations were determined using the extinction coefficient at 280 nm predicted by the Expasy ProtParam tool (http://web.expasy.org/protparam/).
(§2) For fluorescence anisotropy measurements, the MPZ1-N-2X peptide attached to 5 carboxyfluorescein (5-FAM) at its N-terminus was obtained from GenScript at >95% purity. Binding affinities of hIRE1α LD mutants to FAM-labeled peptides were determined by measuring the change in fluorescence anisotropy on a Tecan CM Spark Micro Plate Reader with excitation at 485 nm and emission at 525 nm with increasing concentrations of hIRE1α LD variants. […]

hIRE1α LD wild-type = biological target: T2, hIRE1α LD wild-type (Homo sapiens, UniProt O75460); assay: Fluorescence anisotropy, binding of labeled MPZ1N-2X to hIRE1α LD WT
T2 construct: His6 (N, cleaved yes); made in house; host or cells: Escherichia coli BL21DE3* RIPL
T2 sequence (O75460 24-443): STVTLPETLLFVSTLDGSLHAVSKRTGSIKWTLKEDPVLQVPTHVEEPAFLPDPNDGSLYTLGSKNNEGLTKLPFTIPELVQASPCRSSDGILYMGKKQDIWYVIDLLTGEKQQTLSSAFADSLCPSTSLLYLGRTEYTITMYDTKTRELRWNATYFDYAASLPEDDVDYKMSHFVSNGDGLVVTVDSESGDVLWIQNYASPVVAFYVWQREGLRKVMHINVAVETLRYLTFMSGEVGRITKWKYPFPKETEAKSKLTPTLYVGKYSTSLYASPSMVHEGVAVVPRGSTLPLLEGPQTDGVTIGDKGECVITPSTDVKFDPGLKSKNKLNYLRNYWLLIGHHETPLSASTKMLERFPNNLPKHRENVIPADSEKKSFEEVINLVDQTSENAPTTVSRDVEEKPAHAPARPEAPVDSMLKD
Method: as §1, §2

hIRE1α LD E102R = biological target: T3, hIRE1α LD E102R (Homo sapiens, UniProt O75460, E102R); assay: Fluorescence anisotropy, binding of labeled MPZ1N-2X to hIRE1α LD E102R
T3 construct: His6 (N, cleaved yes); made in house; host or cells: Escherichia coli BL21DE3* RIPL
T3 sequence (O75460 24-443 E102R): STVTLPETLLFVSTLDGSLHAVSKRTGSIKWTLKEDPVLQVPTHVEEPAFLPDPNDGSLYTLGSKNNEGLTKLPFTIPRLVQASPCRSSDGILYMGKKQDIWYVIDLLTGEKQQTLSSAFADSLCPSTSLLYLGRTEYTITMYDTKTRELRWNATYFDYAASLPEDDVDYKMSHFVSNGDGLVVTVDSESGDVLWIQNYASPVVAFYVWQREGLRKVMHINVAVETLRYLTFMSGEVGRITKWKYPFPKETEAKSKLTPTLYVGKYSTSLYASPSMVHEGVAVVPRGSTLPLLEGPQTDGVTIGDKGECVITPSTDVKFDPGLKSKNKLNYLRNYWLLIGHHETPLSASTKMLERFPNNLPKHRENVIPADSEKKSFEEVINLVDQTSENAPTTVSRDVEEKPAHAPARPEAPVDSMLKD
Method: as §1, §2

hIRE1α = details: available binding affinities to hIRE1α; fluorescence anisotropy; ref Karagöz et al., 2017; Kettel et al., 2024; cited from earlier work
Description: page 1: Structural Dynamics of IRE1 and its Interaction with Unfolded Peptides Supplementary File 2 Polypeptide K1/2 [µM] […] References Elif Karag¨oz G, Acosta-Alvear D, Nguyen HT, Lee CP, Chu F, Walter P. An unfolded protein-induced conformational switch activates mammalian IRE1. eLife. 2017;6:e30700. Kettel P, Marosits L, Spinetti E, Rechberger M, Giannini C, Radler P, et al. Disordered regions in the IRE1 ER lumenal domain medi ...

[1] = biological target: T4, MPZ1N-2X peptide, 5-FAM labelled (5 carboxyfluorescein (5-FAM) at its N-terminus); assay: fluorescence polarisation; fluorescence anisotropy; 90 nM 5-FAM-labelled peptide with increasing concentrations of hIRE1α LD variants; 25 mM HEPES pH 7.2, 150 mM NaCl, 2 mM DTT, 0.025% Tween 20; 30 min at 25°C; Hill fit, apparent K1/2 (does not reflect the dissociation constant); details: both partners purified
T4 construct: model unfolded peptide derived from Myelin Protein Zero (MPZ); not a plain stretch of the natural protein; source: synthetic peptide; bought: GenScript (>95% purity)
T4 peptide: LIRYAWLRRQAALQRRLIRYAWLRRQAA

[2] = 95% confidence interval of KD, read-out: KD 95% confidence interval

Row | Molecule | K1/2 (hIRE1α) | K1/2 (apparent) [1] | also measured
1 | LIRYAWLRRQAALQRRLIRYAWLRRQAA [MPZ1N-2X] | – | – | Kd (hIRE1α LD Y161R): 4.3 to 7.1 µM; Kd (hIRE1α LD wild-type; [2]): 1.81 to 2.53 µM; Kd (hIRE1α LD wild-type; fluorescence anisotropy, 5-FAM-labeled peptide 90 nM, pH 7.2, 30 min, 25°C, R2 0.9918, read-out: KD): 2.14 µM; Kd (hIRE1α LD E102R; [2]): 5.84 to 6.96 µM; Kd (hIRE1α LD E102R; fluorescence anisotropy, 5-FAM-labeled peptide 90 nM, pH 7.2, 30 min, 25°C, R2 0.9992, read-out: KD): 6.35 µM
2 | LIDYAWLDDQAALQDDLIDYAWLDDQAA [MPZ1N-2X-RD, MPZ1N-2X with all the arginines mutated to aspartic acid] | binding impaired | – | –
3 | LQRRISAME [MPZ1-C, peptide derived from Myelin Protein Zero, …] | 572 µM | – | –
4 | LIRYAWLRRQAA [MPZ1-N, unfolded peptide derived from Myelin Protein Zero, …] | 16 µM | – | –
5 | human IRE1α luminal domain (hIRE1α LD, 24–443), wild type (domain or fragment, UniProt O75460 24-443, looked up, Inositol-requiring enzyme 1 alpha (IRE1α), human, luminal domain, residues 24-443, cloned from human cDNA into pET47b(+); also called hIRE1α LD WT; WT; source: E. coli BL21DE3* RIPL, purified (Ni-NTA, HiTRAP-Q, Superdex 200); not shown: His6, N-terminal, cleaved) STVTLPETLLFVSTLDGSLHAVSKRTGSIKWTLKEDPVLQVPTHVEEPAFLPDPNDGSLYTLGSKNNEGLTKLPFTIPELVQASPCRSSDGILYMGKKQDIWYVIDLLTGEKQQTLSSAFADSLCPSTSLLYLGRTEYTITMYDTKTRELRWNATYFDYAASLPEDDVDYKMSHFVSNGDGLVVTVDSESGDVLWIQNYASPVVAFYVWQREGLRKVMHINVAVETLRYLTFMSGEVGRITKWKYPFPKETEAKSKLTPTLYVGKYSTSLYASPSMVHEGVAVVPRGSTLPLLEGPQTDGVTIGDKGECVITPSTDVKFDPGLKSKNKLNYLRNYWLLIGHHETPLSASTKMLERFPNNLPKHRENVIPADSEKKSFEEVINLVDQTSENAPTTVSRDVEEKPAHAPARPEAPVDSMLKD | – | 2.14 µM | –
6 | human IRE1α luminal domain (hIRE1α LD, 24–443) Y161R (domain or fragment, UniProt O75460 24-443, looked up, Inositol-requiring enzyme 1 alpha (IRE1α), human, luminal domain, residues 24-443, with Y161R introduced by overlap extension PCR; source: E. coli BL21DE3* RIPL, purified (Ni-NTA, HiTRAP-Q, Superdex 200); not shown: His6, N-terminal, cleaved) STVTLPETLLFVSTLDGSLHAVSKRTGSIKWTLKEDPVLQVPTHVEEPAFLPDPNDGSLYTLGSKNNEGLTKLPFTIPELVQASPCRSSDGILYMGKKQDIWYVIDLLTGEKQQTLSSAFADSLCPSTSLLYLGRTERTITMYDTKTRELRWNATYFDYAASLPEDDVDYKMSHFVSNGDGLVVTVDSESGDVLWIQNYASPVVAFYVWQREGLRKVMHINVAVETLRYLTFMSGEVGRITKWKYPFPKETEAKSKLTPTLYVGKYSTSLYASPSMVHEGVAVVPRGSTLPLLEGPQTDGVTIGDKGECVITPSTDVKFDPGLKSKNKLNYLRNYWLLIGHHETPLSASTKMLERFPNNLPKHRENVIPADSEKKSFEEVINLVDQTSENAPTTVSRDVEEKPAHAPARPEAPVDSMLKD | – | 5.4 µM | –
7 | human IRE1α luminal domain (hIRE1α LD, 24–443) E102R (domain or fragment, UniProt O75460 24-443, looked up, Inositol-requiring enzyme 1 alpha (IRE1α), human, luminal domain, residues 24-443, with E102R introduced by overlap extension PCR; source: E. coli BL21DE3* RIPL, purified (Ni-NTA, HiTRAP-Q, Superdex 200); not shown: His6, N-terminal, cleaved) STVTLPETLLFVSTLDGSLHAVSKRTGSIKWTLKEDPVLQVPTHVEEPAFLPDPNDGSLYTLGSKNNEGLTKLPFTIPRLVQASPCRSSDGILYMGKKQDIWYVIDLLTGEKQQTLSSAFADSLCPSTSLLYLGRTEYTITMYDTKTRELRWNATYFDYAASLPEDDVDYKMSHFVSNGDGLVVTVDSESGDVLWIQNYASPVVAFYVWQREGLRKVMHINVAVETLRYLTFMSGEVGRITKWKYPFPKETEAKSKLTPTLYVGKYSTSLYASPSMVHEGVAVVPRGSTLPLLEGPQTDGVTIGDKGECVITPSTDVKFDPGLKSKNKLNYLRNYWLLIGHHETPLSASTKMLERFPNNLPKHRENVIPADSEKKSFEEVINLVDQTSENAPTTVSRDVEEKPAHAPARPEAPVDSMLKD | – | 6.35 µM | –
